{"source": "paper PMC2904774", "about": "(PLoS Pathogens, 2010)", "molecular_target": "T1, NUE (CT737), GST-NUE (Chlamydia trachomatis, UniProt O84742)", "T1 construct": "gene CT_737", "T1 sequence (O84742 entry or part of it)": "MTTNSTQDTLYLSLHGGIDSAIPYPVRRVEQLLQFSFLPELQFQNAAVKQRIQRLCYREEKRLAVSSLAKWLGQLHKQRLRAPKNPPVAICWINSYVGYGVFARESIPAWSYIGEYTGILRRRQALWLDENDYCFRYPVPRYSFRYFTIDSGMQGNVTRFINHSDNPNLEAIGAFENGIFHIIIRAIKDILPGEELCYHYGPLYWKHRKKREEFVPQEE", "conditions": "core histones or recombinant H2B, H3, H4 as acceptor, also automethylation; 50 mM Tris pH 8, 20 mM KCl, 10 mM MgCl2, 1 mM DTT, 30 °C, 1 h; labelled compound", "data": [{"compound": "C[S+](CC[C@H](N)C(=O)O)C[C@H]1O[C@@H](n2cnc3c(N)ncnc32)[C@H](O)[C@@H]1O", "note": "(stereo partly drawn) [SAM, S-adenosyl-L-methionine]", "values": [{"measurement": "in vitro methyltransferase assay, 14C autoradiography of SDS-PAGE", "value": "in vitro methyltransferase assays using GST-NUE purified from E. coli and mammalian histones"}]}]}
